From US11261192B2, “Substituted 1,2-dihydro-3H-pyrazolo[3,4-D]pyrimidin-3-ones” (Recurium IP Holdings, LLC, priority 2018, dated 2022)
Like-named read-outs stand apart in the source and are kept apart here.

Assays:
Wee1 kinase = Wee1 kinase (Homo sapiens, UniProt P30291); experiment: Wee1 Binding Assay (FRET)
Experimental: Wee 1 kinase was determined by using Fluorescence Resonance Energy Transfer (FRET) assay. […] The plate was shaken for 30 seconds, incubated for 60 min at RT, and recorded on fluorescence plate reader.

H23 cells = experiment: H23 Cellular Proliferation Assay (CellTiter-Glo); assay type: cell-based; settings: Homo sapiens, NCI-H23, 96 h, 4 days, read-out: H23 CTG IC50
Experimental: H23 Cellular Proliferation Assay
Cells were treated with compounds diluted in DMSO and a 9 point 5-fold serial dilutions. Plates were placed in 37° C., 5% CO2 for to incubate for 4 days. Before they were developed by adding 100 μL of CellTiter-Glo reagent (Promega) to the assay plate, plates were shaken briefly for 2 mins and allowed to incubate at rt for 10 mins. The plates are read with a M5e plate reader according to CellTiter-Glo protocol. The GraphPad Prism software is used to get IC50 values.

[1] = FRET, Wee1 kinase 2 nM, tracer 178 50 nM, 60 min at RT, read-out: Wee1 enzymatic IC50

Wee1 kinase, sequence (P30291 whole entry): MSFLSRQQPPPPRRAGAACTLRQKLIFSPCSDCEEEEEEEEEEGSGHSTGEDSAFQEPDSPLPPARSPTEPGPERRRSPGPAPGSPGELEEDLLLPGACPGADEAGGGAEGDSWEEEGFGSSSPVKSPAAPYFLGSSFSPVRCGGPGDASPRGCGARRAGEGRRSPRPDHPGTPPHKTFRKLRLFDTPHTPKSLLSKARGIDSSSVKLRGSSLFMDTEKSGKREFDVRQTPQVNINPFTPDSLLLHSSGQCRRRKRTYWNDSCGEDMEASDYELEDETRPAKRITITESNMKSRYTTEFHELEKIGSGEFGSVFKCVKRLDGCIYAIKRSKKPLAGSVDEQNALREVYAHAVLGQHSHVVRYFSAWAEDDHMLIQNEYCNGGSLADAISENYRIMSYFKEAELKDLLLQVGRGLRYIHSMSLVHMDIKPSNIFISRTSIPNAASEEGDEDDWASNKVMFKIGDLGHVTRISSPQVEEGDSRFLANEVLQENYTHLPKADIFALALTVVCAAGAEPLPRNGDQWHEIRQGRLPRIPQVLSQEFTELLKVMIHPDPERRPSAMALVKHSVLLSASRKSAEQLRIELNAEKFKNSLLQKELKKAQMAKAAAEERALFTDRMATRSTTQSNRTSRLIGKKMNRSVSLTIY

Row | SMILES | IC50 (Wee1 kinase; [1]) [nM] | IC50 (H23 cells) [nM] | IC50 (Wee1 kinase) [nM]
1 | C=CCn1c(=O)c2cnc(Nc3ccc(N4CCN(C)CC4)cc3)nc2n1-c1cnc2c(c1)[C@@](C)(O)CO2 (single isomer, unassigned) [Example 35A, 2-allyl-1-(3-hydroxy-3-methyl-2,3-dihydrofuro[2,3-b]pyridin-5-yl)-6-((4-(4-methylpiperazin-1-yl)phenyl)amino)-1,2-dihydro-3H-pyrazolo[3,4-d]pyrimidin-3-one] | 10 to 100 | > 1000 | 
2 | C=CCn1c(=O)c2cnc(Nc3ccc(N4CCN(C)CC4)cc3)nc2n1-c1cnc2c(c1)[C@](C)(O)CO2 (single isomer, unassigned) [Example 35B] | 10 to 100 | > 1000 | 
3 | C=CCn1c(=O)c2cnc(Nc3ccc(N4CCN(C)CC4)cc3)nc2n1-c1cn2c(n1)[C@@](C)(O)CC2 (single isomer, unassigned) [Example 36A] | 10 to 100 | > 1000 | 
4 | C=CCn1c(=O)c2cnc(Nc3ccc(N4CCN(C)CC4)cc3)nc2n1-c1cn2c(n1)[C@](C)(O)CC2 (single isomer, unassigned) [Example 36B] | > 100 | > 1000 | 
5 | C=CCn1c(=O)c2cnc(Nc3ccc(N4CCNCC4)cc3)nc2n1-c1ccc2c(n1)C(F)(F)CC2 [Example 7, 2-Allyl-1-(7,7-difluoro-6,7-dihydro-5H-cyclopenta[b]pyridin-2-yl)-6-((4-(piperazin-1-yl)phenyl)amino)-1,2-dihydro-3H-pyrazolo[3,4-d]pyrimidin-3-one] | < 10 | > 1000 | 
6 | C=CCn1c(=O)c2cnc(Nc3ccc(N4CCN(C)CC4)cc3)nc2n1-c1ccc2c(n1)C(F)(F)CC2 [Example 8, 2-Allyl-1-(7,7-difluoro-6,7-dihydro-5H-cyclopenta[b]pyridin-2-yl)-6-((4-(4-methylpiperazin-1-yl)phenyl)amino)-1,2-dihydro-3H-pyrazolo[3,4-d]pyrimidin-3-one] |  | 100 to 1000 | < 10
7 | C=CCn1c(=O)c2cnc(Nc3ccc(N4CCN(C)CC4)cc3)nc2n1-c1cn2c(n1)COCC2 [Example 32, 2-allyl-1-(5,6-dihydro-8H-imidazo[2,1-c][1,4]oxazin-2-yl)-6-((4-(4-methylpiperazin-1-yl)phenyl)amino)-1,2-dihydro-3H-pyrazolo[3,4-d]pyrimidin-3-one] | 10 to 100 | > 1000 | 
8 | C=CCn1c(=O)c2cnc(Nc3ccc(N4CCN(C)CC4)cc3)nc2n1-c1ccc2c(n1)C(=O)N(C)C2 [Example 33, 2-allyl-1-(6-methyl-7-oxo-6,7-dihydro-5H-pyrrolo[3,4-b]pyridin-2-yl)-6-((4-(4-methylpiperazin-1-yl)phenyl)amino)-1,2-dihydro-3H-pyrazolo[3,4-d]pyrimidin-3-one] | 10 to 100 | > 1000 | 
